Our source for the IC50 values is patent US8604217B2, “Compound, a process for its preparation, a pharmaceutical composition, use of a compound, a method for modulating or regulating serine/threonine kinases and a serine/threonine kinases modulating agent” (Selvita S.A., priority 2009, dated 2013).

Read-outs that look alike come from different tables or passages of the source.

In one assay the target is PIM-1 (Homo sapiens (Human), UniProt P11309). The assay is described as follows: Luminometric kinase assay for PIM1 kinase (Kinase-Glo). In kind it is biochemical. Particulars: 1 μM ATP, 25 min at RT. The procedure, abridged:
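Kinase and substrate reacted in 8 mM MOPS/NaOH pH7.0, 0.2 mM EDTA, 2 mM MgCl2 with 1 μM ATP for 25 min at RT, compounds serially diluted from 1 μM. Remaining ATP read by Kinase-Glo luminescence; IC50 from variable-slope sigmoidal fit.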

In assay [1] the test system is human chronic myelocytic leukemia K562 cells. The assay is described as follows: Growth inhibition test (MTS) on K562 cells. In kind it is cell-based. To be noted: 72 hours, read-out: K562 ED50. How it is done:
(§1) Ten thousand cells of human chronic myelocytic leukemia K562 were inoculated into each well of a 96-well microplate (manufactured by Corning Corp.) using Iscove's MDM medium (culture medium) containing 10% fetal calf serum (FCS). Next day, a dimethyl sulfoxide (DMSO) solution of each test compound prepared in a concentration of 10 mmol/L was further diluted with culture medium to the desired concentrations (0.1, 0.5, 1, 2.5, 5 and 10 micromol/L), and the diluted solution was added to each well. The individual wells were further cultured in 5% carbon dioxide at 37° C. for 72 hours. After completion of the culture, 10 μl MTS (3-(4,5-Dimethyl-2-thiazolyl)-5-(carboxymethoxyphenyl)-2-(4-sulfophenyl)-2H-tetrazolium, inner salt assay (CellTiter96® AQueous One Solution Cell Proliferation Assay, Promega) was added to each well, and culturing was performed in 5% carbon dioxide at 37° C. for 2 hours. Using a microplate spectrophotometer (Synergy 2 multi-mode microplate reader (BioTek)), the absorbance of each well was measured at 490 nm. The value for cells not incorporated with a test compound was designated as 100%. By comparing these values with the absorbance difference obtained at the well in which each test compound was added, the cell viability (% viability) after treatment with the test compound was calculated.

Assay [2] relates to human breast adenocarcinoma MCF7 cells. The assay is described as follows: Growth inhibition test (MTS) on MCF7 cells. In kind it is cell-based. To be noted: read-out: MCF-7 ED50. The procedure, abridged:
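MCF7 cells seeded in DMEM with 10% FCS, dosed next day at 0.1–10 micromol/L (diluted from 10 mmol/L DMSO stock) and cultured 72 h at 37° C, 5% CO2. MTS added for 2 h, absorbance read at 490 nm; % viability calculated relative to untreated cells as 100%.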

Assay [3] concerns human colorectal adenocarcinoma SW480 cells. Briefly: Growth inhibition test (MTS) on SW480 cells. In kind it is cell-based. To be noted: read-out: SW480 ED50. How it is done: as §1, with “Two” for “Ten”, “colorectal adenocarcinoma SW480” for “chronic myelocytic leukemia K562”, “Corp.), and” for “Corp.)”, “DMEM/Ham's F121:1” for “Iscove's MDM”, “5%” for “10%”
Assay [4] deals with human prostate adenocarcinoma PC3 cells. The assay is described as follows: Growth inhibition test (MTS) on PC3 cells. In kind it is cell-based. Particulars: Homo sapiens, PC-3, 72 hours, read-out: PC-3 ED50.
Assay [5] relates to human hepatoma HepG2 cells. Briefly: Growth inhibition test (MTS) on HepG2 cells. In kind it is cell-based. Particulars: 72 hours, read-out: HepG2 ED50. The procedure, abridged:
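HepG2 cells in DMEM with 10% FCS were exposed for 72 h at 37 °C, 5% CO2, to 0.1, 0.5, 1, 2.5, 5 and 10 micromol/L compound. MTS was then added for 2 h and absorbance read at 490 nm. % viability was calculated relative to untreated cells set at 100%.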

The subject of assay [6] is human myelomonocytic, biphenotypic leukemia MV4-11 cells. The assay is described as follows: Growth inhibition test (MTS) on MV4-11 cells. In kind it is cell-based. To be noted: Homo sapiens, MV4-11, 72 hours, read-out: MV-4-11 ED50. The procedure, abridged: MV4-
Assay [7] has as its system human erytroblast leukemia HEL-92.1.7 cells. Briefly: Growth inhibition test (MTS) on HEL-92.1.7 cells. To be noted: 72 hours, read-out: HEL92 ED50. In kind it is cell-based. How it is done: as §1, with “erytroblast” for “chronic myelocytic”, “HEL-92.1.7” for “K562”, “RPMI 1640” for “Iscove's MDM”

Sequence of PIM-1 (P11309 whole entry): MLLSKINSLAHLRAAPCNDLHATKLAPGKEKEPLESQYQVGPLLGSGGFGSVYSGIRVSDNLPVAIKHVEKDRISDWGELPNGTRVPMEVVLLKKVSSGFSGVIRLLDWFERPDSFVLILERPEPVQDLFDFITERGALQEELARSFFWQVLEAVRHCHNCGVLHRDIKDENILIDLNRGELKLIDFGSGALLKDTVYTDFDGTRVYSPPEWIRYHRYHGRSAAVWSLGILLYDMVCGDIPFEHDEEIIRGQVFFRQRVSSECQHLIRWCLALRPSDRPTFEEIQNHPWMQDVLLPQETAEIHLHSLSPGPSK

Take `Brc1c(Br)c(Br)c2[nH]c(NCCN3CCCCC3)nc2c1Br` [Compound 13, 4,5,6,7-tetrabromo-N-(2-(piperidin-1-yl)ethyl)-1H-benzo[d]imidazol-2-amine]: the IC50 at PIM-1 stood at 0.319 µM; in assay [1], 3.72 µM; in assay [2] (72 hours), 3.65 µM; in assay [3] (72 hours), 1.08 µM; in assay [4], 3.86 µM; in assay [5], 2.54 µM.

Regarding `Brc1c(Br)c(Br)c2[nH]c(NCCN3CCCC3)nc2c1Br` [Compound 14, 4,5,6,7-tetrabromo-N-(2-(pyrrolidin-1-yl)ethyl)-1H-benzo[d]imidazol-2-amine], the IC50 at PIM-1 is 0.0578 µM; in assay [1], 3.59 µM; in assay [2] (72 hours), 7.76 µM; in assay [3] (72 hours) it was 1.53 µM; in assay [4] it was 3.96 µM; in assay [5], 2.12 µM.

With `CN1CCN(c2nc3c(Br)c(Br)c(Br)c(Br)c3[nH]2)CC1` [Compound 21, 4,5,6,7-tetrabromo-2-(4-methylpiperazin-1-yl)-1H-benzo[d]imidazole], the IC50 at PIM-1 is 0.0419 µM; in assay [1], 7.99 µM; in assay [3] (72 hours), 5.98 µM; in assay [5], 6.32 µM.

Turning to `Brc1c(Br)c(Br)c2[nH]c(NCCCn3ccnc3)nc2c1Br` [Compound 65, N-(3-(1H-imidazol-1-yl)propyl)-4,5,6,7-tetrabromo-1H-benzo[d]imidazol-2-amine], the IC50 at PIM-1 turned out to be 0.0227 µM; in assay [6] it was 3.46 µM; in assay [7] it was 8.37 µM; in assay [2] (Homo sapiens, MCF7, 72 hours) it was 8.22 µM; in assay [3] (72 hours) it was 6.92 µM; in assay [4], 7.45 µM.

As for `CN1CCN(C2CCN(c3nc4c(Br)c(Br)c(Br)c(Br)c4[nH]3)CC2)CC1` [Compound 385, 4,5,6,7-tetrabromo-2-(4-(4-methylpiperazin-1-yl)piperidin-1-yl)-1H-benzo[d]imidazole], the IC50 was 0.0453 µM at PIM-1; 4.57 µM in assay [6]; 2.21 µM in assay [7]; 5.8 µM in assay [2] (Homo sapiens, MCF7, 72 hours); 6.88 µM in assay [4]; 3.76 µM in assay [5].

In the case of `Cc1nc2ccccn2c1CN1CCN(c2nc3c(Br)c(Br)c(Br)c(Br)c3[nH]2)CC1` [Compound 414, 4,5,6,7-tetrabromo-2-(4-((2-methyl-1H-imidazo[1,2-a]pyridin-3-yl)methyl)piperazin-1-yl)-1H-benzo[d]imidazole], the IC50 worked out at 3.03 µM in assay [6]; 7.1 µM in assay [7]; 8.23 µM in assay [2] (Homo sapiens, MCF7, 72 hours); 4.32 µM in assay [3] (Homo sapiens, SW480, 72 hours); 8.94 µM in assay [4].
